# Source: publication PMC12881681 (Molecular Pharmacology, 2025)
# Like-named read-outs stand apart in the source and are kept apart here.
# Assays:
# [1] = biological target: T1, human liver cytosolic AOX1 (Homo sapiens, UniProt Q06278); experiment: Effects of a competing AOX1 substrate and a competitive AOX1 inhibitor on AOX1 inactivation; assay type: biochemical; parameters: Enzymatic reaction was initiated by adding human liver cytosol (100 μg); tissue Corning, Inc. (Gentest brand) 452115; host or cells: human liver cytosol, pool of 150 donors; details: 120 and 240 μM, human liver cytosol (data not shown)
# T1 sequence (Q06278 1-1338): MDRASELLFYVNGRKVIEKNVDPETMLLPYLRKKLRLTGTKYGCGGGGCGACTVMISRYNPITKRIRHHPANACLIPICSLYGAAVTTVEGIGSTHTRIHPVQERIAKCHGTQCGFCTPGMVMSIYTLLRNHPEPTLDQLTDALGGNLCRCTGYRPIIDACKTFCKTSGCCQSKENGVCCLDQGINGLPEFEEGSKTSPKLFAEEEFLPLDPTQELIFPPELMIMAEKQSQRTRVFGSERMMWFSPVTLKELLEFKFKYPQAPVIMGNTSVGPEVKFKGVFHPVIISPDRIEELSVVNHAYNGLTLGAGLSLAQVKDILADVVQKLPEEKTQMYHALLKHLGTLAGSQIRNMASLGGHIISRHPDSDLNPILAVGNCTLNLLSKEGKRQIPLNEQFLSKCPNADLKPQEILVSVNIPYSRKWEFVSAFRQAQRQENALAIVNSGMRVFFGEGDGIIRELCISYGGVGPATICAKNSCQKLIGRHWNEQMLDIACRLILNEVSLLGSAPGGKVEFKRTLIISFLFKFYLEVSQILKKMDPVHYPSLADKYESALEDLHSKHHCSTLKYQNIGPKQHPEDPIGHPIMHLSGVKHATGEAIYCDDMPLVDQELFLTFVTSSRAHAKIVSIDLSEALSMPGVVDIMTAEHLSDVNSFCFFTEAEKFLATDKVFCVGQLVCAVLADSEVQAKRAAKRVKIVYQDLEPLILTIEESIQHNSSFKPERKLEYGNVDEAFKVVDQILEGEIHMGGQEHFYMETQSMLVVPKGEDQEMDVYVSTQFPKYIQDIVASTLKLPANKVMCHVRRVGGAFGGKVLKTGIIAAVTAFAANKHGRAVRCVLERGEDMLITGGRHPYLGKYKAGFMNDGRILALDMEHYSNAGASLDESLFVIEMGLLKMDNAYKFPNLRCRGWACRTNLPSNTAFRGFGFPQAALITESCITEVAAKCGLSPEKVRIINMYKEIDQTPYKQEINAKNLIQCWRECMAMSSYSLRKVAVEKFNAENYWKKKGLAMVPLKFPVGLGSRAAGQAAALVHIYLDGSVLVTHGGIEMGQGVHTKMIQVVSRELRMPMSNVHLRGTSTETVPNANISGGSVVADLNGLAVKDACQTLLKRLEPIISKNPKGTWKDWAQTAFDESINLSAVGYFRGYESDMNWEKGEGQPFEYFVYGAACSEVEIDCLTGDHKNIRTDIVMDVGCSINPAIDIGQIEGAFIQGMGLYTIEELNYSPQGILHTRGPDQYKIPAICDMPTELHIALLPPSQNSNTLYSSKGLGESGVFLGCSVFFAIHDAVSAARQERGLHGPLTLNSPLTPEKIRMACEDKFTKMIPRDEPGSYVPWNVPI
# Experimental: The molar ratio of O^6-benzylguanine (120, 240, and 480 μM) to 3-vinylerlotinib (10 μM) was 12, 24, and 48, O^6-benzylguanine to 4′-methylerlotinib (3 μM) was 40, 80, and 160, and O^6-benzylguanine to 2-methylerlotinib (1 μM) was 120, 240, and 480, respectively. […] Each standard incubation mixture was subjected to the same procedures as described in Enzyme Inactivation Experiments. The residual AOX1 enzyme activity was determined by the carbazeran 4-oxidation or O^6-benzylguanine 8-oxidation assay.
# human recombinant AOX1 = biological target: T2, human recombinant AOX1 (Homo sapiens, UniProt Q06278); experiment: Time-dependent inactivation of carbazeran 4-oxidation by human recombinant AOX1; assay type: biochemical; details: each 10 μM (raloxifene 0.02 μM), 30-minute preincubation, vs vehicle control without preincubation
# T2 construct: purchased Cypex Ltd CYP150
# T2 sequence (Q06278 1-1338): T1 sequence (Q06278 1-1338)
# Experimental: (§1) Carbazeran 4-oxidation and O^6-benzylguanine 8-oxidation were deployed as AOX1-selective catalytic markers.[27] The assay conditions (amount of cytosolic protein, incubation time, and substrate concentration) for carbazeran 4-oxidation catalyzed by human recombinant AOX1 and human/rat/mouse liver cytosols were optimized previously.[7]^,[25]
# (§2) Enzymatic reaction was initiated by adding human liver cytosol (100 μg). After the specified preincubation duration, an aliquot (10 μL) of the preincubation mixture was transferred to 190 μL of a prewarmed (for 3 minutes at 37 °C) secondary incubation mixture (total volume of 200 μL) containing potassium phosphate buffer and carbazeran (15 μM) or O^6-benzylguanine (150 μM), which yielded a 20-fold dilution of the primary incubation mixture. The secondary incubation mixture was incubated for 5 minutes at 37 °C before the enzymatic reaction was terminated with 200 μL of ice-cold acetonitrile containing carbazeran-d4 (2.5 nM final concentration; internal standard for 4-oxo-carbazeran) or tolbutamide (25 nM final concentration; internal standard for 8-oxo-O^6-benzylguanine). Each sample was immediately mixed by vortex, placed on ice, centrifuged at 16,000g for 15 minutes at 4 °C and stored at –30 °C until ultra-high performance liquid chromatography–tandem mass spectrometry (UPLC-MS/MS) analysis. For enzyme inactivation assays involving rat and mouse liver cytosol and recombinant AOX1 assays, the experimental conditions were similar to those of human liver cytosol, except that the amount of cytosolic protein was 200 μg (rat) and 150 μg (mouse), respectively, and the incubation time of the secondary incubation mixture was 60 minutes. For the recombinant AOX1 enzyme assay, the amount of enzyme was 100 μg, the incubation time of the secondary incubation mixture was 15 minutes, and the total volume of the primary and secondary incubation mixtures was reduced to 100 μL.
# An aliquot (10 μL) of the primary incubation mixture was transferred to a secondary incubation mixture containing carbazeran (15 μM) and incubated for (A) 180, (B) 5, or (C, D) 120 minutes.
# [2] = Pharmacokinetics study in mice: erlotinib pretreatment, carbazeran and 4-oxo-carbazeran; assay type: in vivo, BALB/c mice; details: for AUC(0-inf) / Cmax / Tmax / AUC0-∞: blood; for AUC(0-inf) / Cmax / CL/F / MRT inf / Tmax / AUC0-∞ / MRT0-∞: carbazeran 10 mg/kg p.o.; for CL/F: read-out: Apparent oral clearance (CL/F) (converted); for MRT inf: read-out: MRT0-∞
# Experimental: BALB/c mice (male, ∼8 weeks old) were purchased and housed at the Biological Resource Centre, Agency for Science, Technology and Research (A∗STAR). The experimental protocol was approved by the A∗STAR Institutional Review Board. […] Blood (12.5 μL) was drawn from the tail vein (with a needle prick) at various times (0.25, 0.5, 0.75, 1, 2, 3, 4, 6, and 8 hours) after carbazeran dosing. The blood samples were diluted 2 times with 12.5 μL of water. Acetonitrile containing the internal standard (carbazeran-d4, 4 nM in 75 μL acetonitrile and 3 nM in final sample volume of 100 μL) was added to the blood samples to precipitate proteins. […] Blank and standard calibration samples were prepared from control mice that were not treated with any chemicals. Pharmacokinetic data were analyzed by noncompartmental analysis using Phoenix WinNonlin 6.3 (Certara).
# At the end of the last blood collection (8 hour post-carbazeran dosing), the mice were sacrificed. […] The tissue samples were homogenized, and a 12.5 μL aliquot of the homogenate was diluted with an equal volume of water. Acetonitrile containing the internal standard (carbazeran-d4, 4 nM in 75 μL acetonitrile and 3 nM in final sample volume of 100 μL) was added to the diluted tissue samples (25 μL) to precipitate the proteins.
# [3] = biological target: T1, human liver cytosolic AOX1; experiment: Partition ratio determination (titration, human liver cytosol); assay type: biochemical; parameters: Enzymatic reaction was initiated by adding human liver cytosol (100 μg); tissue Corning, Inc. (Gentest brand) 452115; host or cells: human liver cytosol, pool of 150 donors
# Experimental: The enzyme kinetic experiments were conducted as described above. The incubation was allowed to proceed until saturation of enzyme has been reached (6 or 18 minutes, as specified in each figure legend). Carbazeran 4-oxidation was plotted against the ratio of inactivator concentration to AOX1 protein concentration in the incubation mixture of 200 μL. The specific lot of human liver cytosol (#38292) used in this study contained 1.05 ± 0.01 pmol/μL (mean ± SD) of AOX1 protein, as assessed by capillary nanoproteomic immunoassay.[27] The turnover number was the extrapolation of the intercept of the 2 linear regression lines to the x-axis, which was determined by solving the 2 linear regression equations. The partition ratio was calculated by subtracting the turnover number by 1, assuming 1:1 stoichiometry between the inactivator and the enzyme.[29]
# [4] = biological target: T1, human liver cytosolic AOX1; assay type: biochemical; parameters: Enzymatic reaction was initiated by adding human liver cytosol (100 μg); tissue Corning, Inc. (Gentest brand) 452115; host or cells: human liver cytosol, pool of 150 donors; details: potassium ferricyanide 2 mM, 0 or 6 min preincubation
# Experimental: The residual AOX1 enzyme activity was determined by the carbazeran 4-oxidation assay.
# A test chemical at a concentration described above was incubated with human liver cytosol (100 μg protein) at 37 °C for 0 or 6 minutes. […] After 10-minute incubation, an aliquot (50 μL) of the […] (total volume of 200 μL) containing potassium phosphate buffer and carbazeran (15 μM), which yielded a 4-fold dilution of the secondary incubation mixture. The residual AOX1 enzyme activity was determined as described above.
# [5] = biological target: T1, human liver cytosolic AOX1; experiment: Enzyme inactivation of human liver cytosolic AOX1-mediated carbazeran 4-oxidation
# Experimental: as §1, §2
# Preliminary experiments were performed to optimize the incubation time and concentration of an inactivator to ensure a log-linear decrease in enzyme activity over time and that the kobs versus inactivator concentration plot reaches a plateau for the determination of the kinact value. The observed first-order rate constant for inactivation (kobs), maximal inactivation rate constant (kinact), half-maximal inactivation concentration (KI), and the time required for half of the enzyme molecules to be inactivated (t1/2) were calculated as described in our previous publication.[28]
# [6] = male, BALB/c, mouse, whole blood, po, 10 mg/kg, Control (vehicle pretreatment)
# [7] = male, BALB/c, mouse, whole blood, po, 10 mg/kg, erlotinib 100 mg/kg p.o. 2 h before
# [8] = erlotinib 100 mg/kg p.o. 2 h before
# [9] = human liver cytosol, carbazeran 4-oxidation
smiles,measurement,setting,value
Nc1nc(OCc2ccccc2)c2nc[nH]c2n1 [O^6-benzylguanine],effect of O^6-benzylguanine alone on carbazeran 4-oxidation,[1],did not affect the activity
COc1cc2ncnc(Nc3ccc(F)c(Cl)c3)c2cc1O [O-desmorpholinopropylgefitinib],decrease in carbazeran 4-oxidation,human recombinant AOX1,did not decrease
"CCNC(=O)OC1CCN(c2nncc3cc(OC)c(OC)cc23)CC1 [Carbazeran, carbazeran]",AUC(0-inf),[2]; [6],2.52 ± 0.46 µM·h
same,Cmax,[2]; [6],3470 ± 1390 nM
same,AUC(0-inf),[2]; [7],4.6 ± 2.02 µM·h
same,Cmax,[2]; [7],3530 ± 2180 nM
same,CL/F,[2]; [6],188 mL/min/kg
same,MRT inf,[2]; [6],79.2 ± 26.4 min
same,CL/F,[2]; [7],114 mL/min/kg
same,MRT inf,[2]; [7],139 ± 45.6 min
same,Tmax,"[2]; male, BALB/c, mouse, whole blood, po, Control (vehicle pretreatment), read-out: Tmax",17.4 ± 5.4 min
"CCNC(=O)OC1CCN(c2n[nH]c(=O)c3cc(OC)c(OC)cc23)CC1 [4-Oxo-Carbazeran, 4-oxo-carbazeran]",Ratio of AUC0-∞ (metabolite) to AUC0-∞ (parent),[2]; Control (vehicle pretreatment),0.31 ± 0.06
same,Ratio of AUC0-∞ (metabolite) to AUC0-∞ (parent),"[2]; Control (vehicle pretreatment), listed as 4-oxo-carbazeran",0.31
same,AUC0-∞,[2]; Control (vehicle pretreatment),0.78 ± 0.23 µM·h
same,Cmax,[2]; Control (vehicle pretreatment),920 ± 390 nM
same,Tmax,[2]; Control (vehicle pretreatment),19.2 ± 7.2 min
same,AUC0-∞,[2]; [8],0.027 ± 0.009∗∗∗∗ μM.h
same,Cmax,[2]; [8],8 ± 3 nM
same,Tmax,[2]; [8],27.6 ± 16.2 min
same,MRT0-∞,[2]; Control (vehicle pretreatment),0.98 ± 0.19 h
same,MRT0-∞,[2]; [8],8.98 ± 8.73∗ h
same,Ratio of AUC0-∞ (metabolite) to AUC0-∞ (parent),[2]; erlotinib 100 mg/kg p.o. 2 h before carbazeran,0.007 ± 0.003∗∗∗∗
Oc1cc2ncnc(Nc3ccc(F)c(Cl)c3)c2cc1OCCCN1CCOCC1 [O-desmethylgefitinib],decrease in carbazeran 4-oxidation,human recombinant AOX1,did not decrease
"CCc1cccc(Nc2ncnc3cc(OCCOC)c(OCCOC)cc23)c1 [Tetrahydroerlotinib, tetrahydroerlotinib]",Turnover Number,[3]; human liver cytosol,No inactivation
same,Partition Ratio,[3]; turnover number minus 1,No inactivation
same,effect of coincubation or postincubation with potassium ferricyanide on AOX1 inactivation,[4],not changed
same,KI,"[5]; half-maximal inactivation concentration, human liver cytosol, carbazeran 4-oxidation",No inactivation
same,kinact,"[5]; human liver cytosol 100 μg, carbazeran 15 μM, 37 °C",No inactivation
same,decrease in carbazeran 4-oxidation,"[5]; human liver cytosol, 10 μM (raloxifene 0.02 μM), 30-minute preincubation",did not decrease
same,decrease in carbazeran 4-oxidation,"[5]; human liver cytosol, 50 μM, 120 minutes preincubation",did not decrease
same,Inactivation t1/2,[5]; [9],No inactivation
same,kinact/KI,[5]; [9],No inactivation
same,"KI,u","[5]; unbound, KI,u = fu × KI, fu at 10 μM in human liver cytosol",No inactivation
